{"source": "patent US20250222116A1", "about": "“PARP-1 DEGRADATION AGENT AND USE THEREOF” (XIZANG HAISCO PHARMACEUTICAL CO., LTD., priority 2021, published 2025)", "key": {"PARP1 [1]": {"target": "T1, PARP1 (Homo sapiens (Human), UniProt P09874)", "T1 sequence (P09874 whole entry)": "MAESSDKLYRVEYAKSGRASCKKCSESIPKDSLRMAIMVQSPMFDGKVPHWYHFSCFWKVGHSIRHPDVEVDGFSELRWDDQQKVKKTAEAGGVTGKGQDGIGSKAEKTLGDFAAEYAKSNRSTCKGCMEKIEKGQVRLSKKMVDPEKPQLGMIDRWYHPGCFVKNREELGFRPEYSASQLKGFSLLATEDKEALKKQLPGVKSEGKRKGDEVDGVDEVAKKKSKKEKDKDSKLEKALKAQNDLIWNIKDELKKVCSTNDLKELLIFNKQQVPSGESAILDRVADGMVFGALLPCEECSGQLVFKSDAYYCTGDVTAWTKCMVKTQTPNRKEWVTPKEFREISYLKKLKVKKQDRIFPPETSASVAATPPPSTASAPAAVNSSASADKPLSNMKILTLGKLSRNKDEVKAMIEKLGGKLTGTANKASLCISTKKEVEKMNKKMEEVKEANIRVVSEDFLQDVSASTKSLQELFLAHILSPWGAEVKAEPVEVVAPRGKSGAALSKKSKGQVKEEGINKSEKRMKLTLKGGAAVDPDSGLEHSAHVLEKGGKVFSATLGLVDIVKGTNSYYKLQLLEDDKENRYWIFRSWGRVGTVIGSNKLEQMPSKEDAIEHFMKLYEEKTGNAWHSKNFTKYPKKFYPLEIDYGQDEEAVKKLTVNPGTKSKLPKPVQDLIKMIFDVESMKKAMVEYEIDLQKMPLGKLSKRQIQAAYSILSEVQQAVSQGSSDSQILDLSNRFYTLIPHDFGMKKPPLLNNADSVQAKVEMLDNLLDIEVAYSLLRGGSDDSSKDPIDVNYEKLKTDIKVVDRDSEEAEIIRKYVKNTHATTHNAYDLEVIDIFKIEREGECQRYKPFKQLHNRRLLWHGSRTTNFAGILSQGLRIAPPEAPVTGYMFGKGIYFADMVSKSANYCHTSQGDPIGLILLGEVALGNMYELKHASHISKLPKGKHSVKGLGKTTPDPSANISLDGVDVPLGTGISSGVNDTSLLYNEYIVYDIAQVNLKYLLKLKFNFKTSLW", "assay": "PARP1 protein expression level in MDA-MB-231 cells", "type": "cell-based", "conditions": "24 hours", "protocol": "The cells were collected into a 1.5 mL centrifuge tube, 25 μL of RIPA lysis buffer (containing 1× protease inhibitor cocktail) was added, and the cells were lysed on ice for 15 minutes and centrifuged at 12000 rpm/min at 4° C. for 10 minutes. The supernatant was collected and the protein content was determined using the BCA method. […] DC50 values were calculated using a four-parameter non-linear fitting model in Graphpad 8.3.0 software."}, "PARP1 [2]": {"target": "T1, PARP1", "assay": "PARP1 protein expression level in MDA-MB-436 cells", "type": "cell-based", "conditions": "100 nM, 24 hours", "protocol": "(§1) MDA-MB-436 cells were placed in a complete DMEM medium (supplemented with 15% FBS; 10 μg/mL Insulin; 16 μg/mL Glutathione and 1% penicillin-streptomycin solution), and cultured at 37° C. under CO2-free conditions. The cells in the logarithmic growth phase were collected, the cell density was adjusted to 2×10^5 cells/well with the culture medium, and the cells were added to a 6-well cell culture plate at a volume of 1 mL/well. The compound to be tested was prepared to 2-fold the final concentration, 1 mL of the compounds at different concentrations were added to administration wells, a medium containing 0.2% DMSO was added to control wells, and the plate was incubated for 24 hours at 37° C. The cells were collected into a 1.5 mL centrifuge tube, 25 μL of RIPA lysis buffer (containing 1× protease inhibitor cocktail) was added, and the cells were lysed on ice for 15 minutes and centrifuged at 12000 rpm/min at 4° C. for 10 minutes. The supernatant was collected and the protein content was determined using the BCA method. The protein sample to be tested was diluted to 0.8 mg/mL, PARP1 was detected using a fully automated protein expression quantitative analyzer (ProteinSimple), and the internal reference protein was 3-actin (both antibodies were from CST). The software (Compass for SW) of the fully automated protein expression quantitative analyzer was used to process the raw data and calculate the peak area and the PARP1 expression rate relative to the control group.\nas §1, with “L-15” for “DMEM”, “mL/well and cultured overnight. On day 2, the” for “mL/well. The”, “group. DC50 values were calculated using a four-parameter non-linear fitting model in Graphpad 8.3.0 software.” for “group.”"}, "[3]": {"tested_on": "breast tumor cells MDA-MB-436", "assay": "MDA-MB-436 cell activity test (CellTiter-Glo, 7 days)", "type": "cell-based, human", "conditions": "Homo sapiens; for IC50: MDA-MB-436, 168 h, MDA-MB-436 cells, 7 days incubation, read-out: IC50 (nM), MDA-MB-436 cell inhibitory activity; for inhibition at 10 µM: MDA-MB-436, MDA-MB-436 cells, read-out: Max inh. % 10 μM", "protocol": "Breast tumor cells MDA-MB-436 were purchased from ATCC, the culture medium was Leibovitz's L-15+10% FBS, and the cells were cultured in a CO2-free incubator at 37° C. On day 1, the cells in the exponential growth phase were collected, and the cell suspension was adjusted to 4000 cells/135 μL with the culture medium. 135 μL of the cell suspension was added to each well of a 96-well cell culture plate and incubated overnight. On day 2, compounds at different concentrations were added, and the plate was placed in the incubator and incubated for 7 days. After the culture was completed, according to operation instructions for a CellTiter-Glo kit (Promega, G7573), 75 μL of CTG solution, which was already pre-melted and equilibrated to room temperature, was added to each well, and the mixture was uniformly mixed for 2 minutes using a microplate shaker. The plate was placed at room temperature for 10 minutes, and then […] signal values were determined using an Envision2104 plate reader (PerkinElmer). The inhibition rate was calculated using formula (1), where RLUcompound was the readout of the drug treated group, RLUcontrol was the average value of the solvent control group, and RLUblank was the average value of the cell-free well. The IC50 value was calculated using GraphPad Prism software."}, "[4]": {"assay": "Pharmacokinetic test in rats", "type": "in vivo, SD rats", "protocol": "7.1 Experimental animals: male SD rats, about 220 g, 6-8 weeks old, 6 rats/compound, purchased from Chengdu Ddossy Experimental Animals Co., Ltd.\n7.2 Experimental design: on the day of the experiment, 12 SD rats were randomly grouped according to their body weights. The animals were fasted with water available for 12 to 14 h one day before the administration, and were fed 4 h after the administration.\n(§2) Before and after the administration, 0.15 mL of blood was taken from the orbit of the animals under isoflurane anesthesia and placed in an EDTAK2 centrifuge tube. The blood was centrifuged at 5000 rpm and 4° C. for 10 min to collect plasma. The blood collection time points for the intravenous administration group and intragastric administration group were: 0, 5 min, 15 min, 30 min, 1 h, 2 h, 4 h, 6 h, 8 h, and 24 h. Before analysis and detection, all samples were stored at −80° C. The samples were analyzed quantitatively by LC-MS/MS."}, "[5]": {"assay": "Pharmacokinetic test in mice", "type": "in vivo, ICR mice", "protocol": "8.1 Experimental animals: male ICR mice, 20 to 25 g, 18 mice/compound, purchased from Chengdu Ddossy Experimental Animals Co., Ltd.\n8.2 Experimental design: on the day of the experiment, 36 ICR mice were randomly grouped according to their body weights. The animals were fasted with water available for 12 to 14 h one day before the administration, and were fed 4 h after the administration.\nas §2, with “0.06” for “0.15”, “intravenous” for “intravenous administration”, “0 min,” for “0,”"}, "[6]": {"conditions": "male, SD, rat, iv, i.v. 2.5 mg/kg, plasma"}, "[7]": {"conditions": "male, ICR, mouse, iv, i.v. 2.5 mg/kg, plasma"}}}
{"compound": "CCc1cc2ncc(CN3CCN(c4ccc(C(=O)NC5CN(C6CCN(c7ccc8c(c7)C(=O)N(C7CCC(=O)NC7=O)C8=O)CC6)C5)nc4)CC3)cc2[nH]c1=O", "note": "(stereo not shown) [Compound 5, N-(1-(1-(2-(2,6-dioxopiperidin-3-yl)-1,3-dioxoisoindolin-5-yl)piperidin-4-yl)azetidin-3-yl)-5-(4-((7-ethyl-6-oxo-5,6-dihydro-1,5-naphthyridin-3-yl)methyl)piperazin-1-yl)picolinamide]", "values": [{"measurement": "DC50", "setting": "PARP1 [1]", "value": 0.12, "unit": "nM"}]}
{"compound": "CCc1cc2ncc(CN3CCN(c4ccc(C(=O)NC5CCN(C6CN(c7cc8c(cc7F)C(=O)N(C7CCC(=O)NC7=O)C8=O)C6)CC5)nc4)CC3)cc2[nH]c1=O", "note": "(stereo not shown) [Compound 26, N-(1-(1-(2-(2,6-dioxopiperidin-3-yl)-6-fluoro-1,3-dioxoisoindolin-5-yl)azetidin-3-yl)piperidin-4-yl)-5-(4-((7-ethyl-6-oxo-5,6-dihydro-1,5-naphthyridin-3-yl)methyl)piperazin-1-yl)picolinamide]", "values": [{"measurement": "PARP1 degradation rate @ 100 nM", "setting": "PARP1 [2]", "value": 83.5, "unit": "%"}, {"measurement": "IC50", "setting": "[3]", "value": 53, "unit": "nM"}, {"measurement": "inhibition at 10 µM", "setting": "[3]", "value": 81.7, "unit": "%"}]}
{"compound": "CCc1cc2ncc(CN3CCN(c4ccc(C(=O)Nc5cnn(C6CCN(c7ccc8c(c7)C(=O)N(C7CCC(=O)NC7=O)C8=O)CC6)c5)nc4)CC3)cc2[nH]c1=O", "note": "(stereo not shown) [Compound 57, N-(1-(1-(2-(2,6-dioxopiperidin-3-yl)-1,3-dioxoisoindolin-5-yl)piperidin-4-yl)-1H-pyrazol-4-yl)-5-(4-((7-ethyl-6-oxo-5,6-dihydro-1,5-naphthyridin-3-yl)methyl)piperazin-1-yl)picolinamide]", "values": [{"measurement": "PARP1 degradation rate @ 100 nM", "setting": "PARP1 [2]", "value": 80.6, "unit": "%"}, {"measurement": "IC50", "setting": "[3]", "value": 15.8, "unit": "nM"}, {"measurement": "inhibition at 10 µM", "setting": "[3]", "value": 84, "unit": "%"}]}
{"compound": "CCc1cc2ncc(CN3CC=C(c4ccc(C(=O)Nc5cnn(C6CCN(c7ccc8c(c7)C(=O)N(C7CCC(=O)NC7=O)C8=O)CC6)c5)nc4)CC3)cc2[nH]c1=O", "note": "(stereo not shown) [Compound 58, N-(1-(1-(2-(2,6-dioxopiperidin-3-yl)-1,3-dioxoisoindolin-5-yl)piperidin-4-yl)-1H-pyrazol-4-yl)-1′-((7-ethyl-6-oxo-5,6-dihydro-1,5-naphthyridin-3-yl)methyl)-1′,2′,3′,6′-tetrahydro-[3,4′-bipyridine]-6-carboxamide]", "values": [{"measurement": "pharmacokinetic characteristics", "setting": "[4]", "value": "good pharmacokinetic characteristics"}, {"measurement": "F", "setting": "[4]; i.g. 10 mg/kg", "value": 6.2, "unit": "%"}, {"measurement": "AUC(0-t)", "setting": "[4]; [6]", "value": 51400, "unit": "ng·h/mL"}, {"measurement": "clearance", "setting": "[4]; [6]", "value": 0.713, "unit": "mL/min/kg"}, {"measurement": "Vd", "setting": "[4]; male, SD, rat, iv, i.v. 2.5 mg/kg, plasma, read-out: Vdss", "value": 0.366, "unit": "L/kg"}, {"measurement": "AUC(0-t)", "setting": "[4]; male, SD, rat, po, i.g. 10 mg/kg, plasma", "value": 12800, "unit": "ng·h/mL"}, {"measurement": "pharmacokinetic characteristics", "setting": "[5]", "value": "good pharmacokinetic characteristics"}, {"measurement": "F", "setting": "[5]; i.g. 10 mg/kg", "value": 15.6, "unit": "%"}, {"measurement": "AUC(0-t)", "setting": "[5]; [7]", "value": 224000, "unit": "ng·h/mL"}, {"measurement": "clearance", "setting": "[5]; [7]", "value": 0.0968, "unit": "mL/min/kg"}, {"measurement": "Vd", "setting": "[5]; male, ICR, mouse, iv, i.v. 2.5 mg/kg, plasma, read-out: Vdss", "value": 0.189, "unit": "L/kg"}, {"measurement": "AUC(0-t)", "setting": "[5]; male, ICR, mouse, po, i.g. 10 mg/kg, plasma", "value": 140000, "unit": "ng·h/mL"}, {"measurement": "PARP1 degradation rate @ 100 nM", "setting": "PARP1 [2]", "value": 79.6, "unit": "%"}, {"measurement": "IC50", "setting": "[3]", "value": 6, "unit": "nM"}, {"measurement": "inhibition at 10 µM", "setting": "[3]", "value": 87.2, "unit": "%"}]}
{"compound": "CCc1cc2ncc(CN3CCN(c4ccc(C(=O)NC5CCC(Oc6ccc7c(c6)C(=O)N(C6CCC(=O)NC6=O)C7=O)CC5)nc4)CC3)cc2[nH]c1=O", "note": "(stereo not shown) [Compound 66, N-((1r,4r)-4-((2-(2,6-dioxopiperidin-3-yl)-1,3-dioxoisoindolin-5-yl)oxy)cyclohexyl)-5-(4-((7-ethyl-6-oxo-5,6-dihydro-1,5-naphthyridin-3-yl)methyl)piperazin-1-yl)picolinamide]", "values": [{"measurement": "PARP1 degradation rate @ 100 nM", "setting": "PARP1 [2]", "value": 76.4, "unit": "%"}, {"measurement": "IC50", "setting": "[3]", "value": 97.8, "unit": "nM"}, {"measurement": "inhibition at 10 µM", "setting": "[3]", "value": 93.2, "unit": "%"}]}
